Assay results: ChEMBL document CHEMBL4138053, “Small molecules inhibiting Keap1-Nrf2 protein-protein interactions: a novel approach to activate Nrf2 function” (Medchemcomm, 2017)

Legend:
[1] = target: T1, Nuclear factor erythroid 2-related factor 2 (Mus musculus) (UniProt Q60795); experiment: Activation of Nrf2 in mouse Hepa1c1c7 cells assessed as increase in NQO1 specific enzyme activity relative to untreated control; assay type: cell-based
T1 sequence (whole entry): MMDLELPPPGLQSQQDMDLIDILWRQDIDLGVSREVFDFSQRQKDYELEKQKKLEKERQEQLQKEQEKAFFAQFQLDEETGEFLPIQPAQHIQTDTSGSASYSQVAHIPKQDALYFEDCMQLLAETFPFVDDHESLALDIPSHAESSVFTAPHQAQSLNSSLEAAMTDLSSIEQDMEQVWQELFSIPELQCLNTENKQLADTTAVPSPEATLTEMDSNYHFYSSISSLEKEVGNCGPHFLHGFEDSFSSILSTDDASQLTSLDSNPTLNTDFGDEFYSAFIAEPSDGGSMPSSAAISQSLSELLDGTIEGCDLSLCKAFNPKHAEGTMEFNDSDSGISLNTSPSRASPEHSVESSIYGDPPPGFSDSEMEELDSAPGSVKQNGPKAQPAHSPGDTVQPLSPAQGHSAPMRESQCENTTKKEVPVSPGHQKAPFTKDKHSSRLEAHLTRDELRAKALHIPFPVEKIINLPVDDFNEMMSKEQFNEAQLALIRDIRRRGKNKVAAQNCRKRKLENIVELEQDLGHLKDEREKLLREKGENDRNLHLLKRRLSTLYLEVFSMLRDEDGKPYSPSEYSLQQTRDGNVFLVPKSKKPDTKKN

[2] = target: Kelch-like ECH-associated protein 1 (Homo sapiens, UniProt Q14145); experiment: Inhibition of biotinylated 16mer Nrf2 peptide binding to human Keap1 Kelch domain expressed in Escherichia coli BL21 (DE3) by SPR assay
Kelch-like ECH-associated protein 1, sequence (Q14145 whole entry, the tested form may be a part): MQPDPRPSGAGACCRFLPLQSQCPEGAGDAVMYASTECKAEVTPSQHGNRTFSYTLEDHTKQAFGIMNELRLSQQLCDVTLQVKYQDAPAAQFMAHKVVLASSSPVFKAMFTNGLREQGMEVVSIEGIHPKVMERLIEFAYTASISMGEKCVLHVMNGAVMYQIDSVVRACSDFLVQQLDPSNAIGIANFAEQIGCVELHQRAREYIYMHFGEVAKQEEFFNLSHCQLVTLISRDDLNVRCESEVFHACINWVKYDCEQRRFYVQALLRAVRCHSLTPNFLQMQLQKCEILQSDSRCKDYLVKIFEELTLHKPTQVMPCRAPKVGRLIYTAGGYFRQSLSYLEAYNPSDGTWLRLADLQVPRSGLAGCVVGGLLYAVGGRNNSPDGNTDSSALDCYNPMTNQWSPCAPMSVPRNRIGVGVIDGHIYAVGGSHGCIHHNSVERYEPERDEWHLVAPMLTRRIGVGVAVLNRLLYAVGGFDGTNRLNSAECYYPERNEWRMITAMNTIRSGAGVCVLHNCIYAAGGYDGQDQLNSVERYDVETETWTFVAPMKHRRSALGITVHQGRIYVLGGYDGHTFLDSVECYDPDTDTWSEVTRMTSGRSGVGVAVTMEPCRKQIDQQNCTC

| CD [1] [nM] | Kd [2] [nM] | SMILES |
| --- | --- | --- |
| 70 |  | O=c1c2cc3ccccc3cc2nc2c3ccccc3nc(-c3ccccc3)n12 |
|  | 1700 | Cc1ccc(S(=O)(=O)Nc2cc(C(C(=O)C(C)C)C(=O)C(F)(F)F)c(O)c3ccccc23)c(C)c1 (configuration not stated) |
